Measurements taken from patent US7132419B2, “Pharmaceutical compounds” (Xenova Limited, priority 2000, dated 2006).

How the values were obtained:
[1] = system: Jurkat human leukaemia cell line (JLC); assay: Cytotoxicity, Jurkat leukaemia cell line JLC; type: cell-based; conditions: concentration required to give 50% cell kill
Experimental: (§1) The cytotoxicity of the compounds described herein was also measured using the Jurkat human leukaemia cell line (JLC) and also the amsacrine-resistant Jurkat human leukaemia cell line (JLA) and the doxorubicin-resistant Jurkat human leukaemia cell line (JLD). The cytotoxicity, as measured by the IC50 (concentration required to give 50% cell kill) in the JLA or JLD cell line divided by the cytotoxicity in the JLC cell line gives an indication of the degree to which a compound may be affected by atypical drug resistance and is termed the resistance factor (Rf) of the compound. The method used has been described previously (Finlay et al, Eur J. Cancer 32A, 708–714, 1996). Compounds were active in the range 1 nM to 5 μM.

[2] = system: amsacrine-resistant Jurkat human leukaemia cell line (JLA); assay: Cytotoxicity, amsacrine-resistant Jurkat cell line JLA; type: cell-based; conditions: for IC50: concentration required to give 50% cell kill; for Rf (JLA/JLC): IC50 in JLA divided by IC50 in JLC, atypical drug resistance
Experimental: as §1

[3] = system: doxorubicin-resistant Jurkat human leukaemia cell line (JLD); assay: Cytotoxicity, doxorubicin-resistant Jurkat cell line JLD; type: cell-based; conditions: for IC50: concentration required to give 50% cell kill; for Rf (JLD/JLC): IC50 in JLD divided by IC50 in JLC, atypical drug resistance
Experimental: as §1

[4] = system: drug resistant human small cell lung carcinoma cell line H69/LX4 which overexpresses P-glycoprotein (Pgp); assay: Cytotoxicity, drug resistant H69/LX4 cell line (AlamarBlue); type: cell-based; conditions: for IC50: concentration required to give 50% cell kill, 5–6 days incubation; for Rf (resistance factor): IC50 in H69/LX4 divided by IC50 in H69/P, Pgp-dependent MDR
Experimental: (§2) The cytotoxicity of compounds of formula (I) was measured using the H69 parental (H69/P) human small cell lung carcinoma cell line and the drug resistant human small cell lung carcinoma cell line H69/LX4 which overexpresses P-glycoprotein (Pgp). The cytotoxicity, as measured by the IC50 (concentration required to give 50% cell kill) in the H69/LX4 cell line divided by the cytotoxicity in the H69/P cell line gives an indication of the degree to which a compound is affected by Pgp-dependent MDR and is termed the resistance factor (Rf) of the compound.
(§3) H69/P and H69/LX4 cells were pipetted into 96-well tissue culture plates and then allowed to incubate at 37° C. for 4 h. […] The plates were incubated for 5–6 days before adding AlamarBlue to each well and returning the plates to the incubator for 5–8 h to allow colour development. The cell numbers in the plates at the end of this period were directly proportional to the absorbance measured at a wavelength of 570 nm (reference wavelength 600 nm).

[5] = system: drug resistant human non-small cell lung carcinoma cell line COR-L23/R which overexpresses multidrug resistance associated protein (MRP); assay: Cytotoxicity, drug resistant COR-L23/R cell line (SRB assay); type: cell-based; conditions: for Rf (resistance factor): IC50 in L23/R divided by IC50 in L23/P, MRP-dependant MDR
Experimental: (§4) The cytotoxicity of the compounds described herein was also measured using the COR-L23 parental (COR-L23/P) human non-small cell lung carcinoma cell line and also the drug resistant human non-small cell lung carcinoma cell line COR-L23/R which overexpresses multidrug resistance associated protein (MRP). The cytotoxicity, as measured by the IC50 (concentration required to give 50% cell kill) in the L23/R cell line divided by the cytotoxicity in the L23/P cell line gives an indication of the degree to which a compound may be affected by MRP-dependant MDR and is termed the resistance factor (Rf) of the compound.
(§5) L23/P and L23/R cells were pipetted into 96-well tissue culture plates and then allowed to incubate at 37° C. for 4 h. […] The plates were incubated for 5–6 days before proliferation was assessed using the sulphurhodamine B (SRB) assay as described by Skehan et al, J Natl Cancer Inst 1990, 82, pp 1107–1112.

[6] = as above; type: cell-based, human; conditions: Homo sapiens, COR-L23/R; concentration required to give 50% cell kill; 5–6 days incubation
Experimental: as §4, §5

[7] = system: H69 parental (H69/P) human small cell lung carcinoma cell line; assay: Cytotoxicity, H69 parental cell line (AlamarBlue); type: cell-based; conditions: concentration required to give 50% cell kill, 5–6 days incubation
Experimental: as §2, §3

[8] = system: COR-L23 parental (COR-L23/P) human non-small cell lung carcinoma cell line; assay: Cytotoxicity, COR-L23 parental cell line (SRB assay); type: cell-based; conditions: concentration required to give 50% cell kill, 5–6 days incubation
Experimental: as §4, §5

| Structure (SMILES) | IC50 ([1]; Homo sapiens, Jurkat) | IC50 ([2]; Homo sapiens, Jurkat) | Rf (JLA/JLC) [2] | IC50 ([3]; Homo sapiens, Jurkat) | Rf (JLD/JLC) [3] | IC50 ([4]; Homo sapiens) | Rf (resistance factor) [4] | Rf (resistance factor) [5] | IC50 [6] | IC50 ([7]; Homo sapiens) | IC50 ([8]; Homo sapiens, COR-L23) | IC50 [1] | IC50 [2] | IC50 [3] | IC50 [4] | IC50 ([5]; concentration required to give 50% cell kill, 5–6 days incubation) | IC50 [7] | IC50 [8] |
| --- | --- | --- | --- | --- | --- | --- | --- | --- | --- | --- | --- | --- | --- | --- | --- | --- | --- | --- |
| CN(C)CCNC(=O)c1cccc2nc3ccc4cc(O)ccc4c3nc12 [Compound 2, 3-Hydroxy-benzo[a]phenazine-11-carboxylic acid (2-dimethylamino-ethyl)-amide] | 37 nM | 96 nM | 2.6 | 107 nM | 2.9 |  |  |  |  |  |  |  |  |  |  |  |  |  |
| CN(C)CCNC(=O)c1cccc2nc3ccc4c(OCC#N)cccc4c3nc12 [Compound 11, 4-Cyanomethoxy-benzo[a]phenazine-11-carboxylic acid (2-dimethylamino-ethyl)-amide] |  |  |  |  |  | 24 nM | 0.9 | 2.9 | 17.7 nM | 28 nM | 6.1 nM |  |  |  |  |  |  |  |
| CN(C)CCNC(=O)c1c(O)ccc2nc3ccc4c(O)cccc4c3nc12 [Compound 68, 4,10-Dihydroxy-benzo[a]phenazine-11-carboxylic acid (2-dimethylamino-ethyl)-amide] |  |  |  |  |  | 25 nM | 1.3 | 3.4 | 44.4 nM | 19 nM | 13.1 nM |  |  |  |  |  |  |  |
| COc1cccc2c1ccc1nc3cccc(C(=O)NC(CO)CN(C)C)c3nc12 (centres unmarked) [Compound 75, 4-Methoxy-benzo[a]phenazine-11-carboxylic acid (2-dimethylamino-1-hydroxymethyl-ethyl)-amide] |  |  |  |  |  | 28 nM | 1.2 | 1.3 | 17.2 nM | 23 nM | 13 nM |  |  |  |  |  |  |  |
| COc1cccc2c1ccc1nc3cccc(C(=O)N[C@H](CO)CN(C)C)c3nc12 [Compound 81, 4-Methoxy-benzo[a]phenazine-11-carboxylic acid (2-dimethylamino-1-(S)-hydroxymethyl-ethyl)-amide] | 8.7 nM | 9.2 nM | 1.1 | 9.3 nM | 1.1 | 25 nM | 1.2 | 3.1 | 12.4 nM | 20 nM | 4 nM |  |  |  |  |  |  |  |
| COc1cccc2c1ccc1nc3cccc(C(=O)NC(C)(CCO)N(C)C)c3nc12 (centres unmarked) [Compound 87, 4-Methoxy-benzo[a]phenazine-11-carboxylic acid [1-dimethylamino-1-(2-hydroxyethyl)]-ethylamide] |  |  | 1.0 |  | 1.0 |  |  |  |  |  |  | 16 nM | 16 nM | 17 nM |  |  |  |  |
| COc1cc(C(=O)NCCN(C)C)c2nc3c(ccc4c(OC)cccc43)nc2c1 [Compound 94, 4,9-Dimethoxy-benzo[a]phenazine-11-carboxylic acid (2-dimethylamino-ethyl)-amide] | 9.2 nM | 16 nM | 1.8 | 14 nM | 1.6 | 25 nM | 1.3 | 0.7 | 3.8 nM | 19 nM | 5.7 nM |  |  |  |  |  |  |  |
| COc1cccc2c1ccc1nc3cccc(C(=O)N[C@@H](CN(C)C)C(C)C)c3nc12 [Compound 98, (R)-4-Methoxy-benzo[a]phenazine-11-carboxylic acid(1-dimethylaminomethyl-2-methyl-propyl)-amide] |  |  | 2.1 |  | 1.6 |  | 1 | 0.9 |  |  |  | 8.6 nM | 18 nM | 14 nM | 20 nM | 8.8 nM | 21 nM | 9.6 nM |
| COc1cccc2c1C(=O)c1c(O)c3c(c(O)c1C2=O)C[C@@](O)(C(=O)CO)C[C@@H]3O[C@H]1C[C@H](N)[C@H](O)[C@H](C)O1 [Doxorubicin, reference compound] | 7 nM |  | 3.7 |  |  | 3700 nM | 135 | 16.1 |  |  |  |  |  |  |  |  |  |  |
| CC[C@@]1(O)C(=O)OCc2c1cc1n(c2=O)Cc2cc3c(CN(C)C)c(O)ccc3nc2-1 [Topotecan, reference compound] |  |  |  |  |  |  | 3.9 | 1.5 |  |  |  |  |  |  |  |  |  |  |
